In patent publication US20100261666A1, “COMPOSITIONS AND METHODS FOR THE TREATMENT OF MYOCARDIAL DYSFUNCTION ASSOCIATED WITH SIRS OR SEPSIS” (THE BOARD OF TRUSTEES OF THE UNIVERSITY OF ILLINOIS, priority 2009, published 2010):

Test system: ADA1
Assay: Real time PCR, left ventricular ADA1 mRNA expression
Format: in vivo, rat
Description: Total RNA was isolated from left ventricular tissue using the SV Total Isolation System (Promega Corp., Madison, Wis.). Isolation was performed according to manufacturer instructions and followed by DNAse treatment to eliminate residual genomic DNA contamination. RNA integrity was determined by loading 1.0 μg of total RNA isolate from each sample onto a 1.0% agarose gel and staining with ethidium bromide to visualize the 18 and 28s RNA bands. The amount of RNA recovered was determined using the Ribogreen RNA Quantification Kit (Molecular Probes, Eugene, Oreg.). 1 μg of total RNA was reverse transcribed in a […] using random hexamer primers with enzyme and buffers supplied in the cDNA First Strand Synthesis kit (MRI Fermentas, Hanover, Md.). First strand cDNA was treated with ribonuclease H to remove residual RNA.
Real time PCR (qPCR) was performed to measure RNA transcripts for left ventricular TNF-α and ADA1. Three housekeeping genes were selected as follows to produce an intergroup correction factor for target transcripts: Cyclophilin A, hypoxanthine-guanine physphoribosyltransferase (HPRT), and β-actin. Primers were selected using Primer 3 software (Rosen and Skaletsky, Whitehead Institute for Biomedical Research) with the rat genomic sequences for TNF gene, ADA gene, HPRT gene, β-actin gene, and Cyclophilin gene as templates. BLAST (National Center for Biotechnology Information) searches were used to verify that the selected primers were specific for the designated target.
Specific primer sequences, GenBank accession numbers, Sequence Identifiers, and product sizes are disclosed in Table 5. Primers were used in a standard PCR with the 2× Master Mix PCR reagent (MRI Fermentas) and cDNA from the tissue of interest as a template. The thermocycling profile consisted of one cycle of 95° C. for 10 minutes, followed by 41 cycles of 95° C. for 1 minute, 61° C. for 1 minute, and 72° C. for 1 minute and a final cycle of 72° C. for 10 minutes. Products were run on a 1.0% agarose gel and stained with ethidium bromide to confirm that only one band was amplified and that no primer dimers were present. PCR products were then column-purified (QIAGEN, Valencia, Calif.) and sequenced to confirm target specificity. For real-time PCRs, SYBR PCR Master Mix (Bio-Rad Laboratories, Hercules, Calif.) was used, and thermocycling and fluorescence detection was performed using a Stratagene Mx3000p real-time PCR machine.
Standards were then amplified by real-time PCR, and standard curves were generated using Stratagene Mx3000P software. […]
A housekeeping gene was selected for normalization of the real-time PCR data for the TNF-α and ADA1 transcripts. Three potential gene (mRNA) products were analyzed for this purpose: CYC, β-actin and HPRT.

Compound	left ventricular ADA1 mRNA expression (copy numbers) compared to CON and LPS hearts (LPS infusion)	left ventricular ADA1 mRNA expression (copy numbers) compared to CON and LPS hearts (vehicle infusion)
Oc1ncnc2[nH]ncc12 [ALO, allopurinol]	No significant differences	No significant differences
OC[C@H]1O[C@@H](n2cnc3c2N=CNCC3O)CC1O (stereo in doubt) [dCF, 2′-deoxycoformycin]	significantly lower	significantly lower
